From patent US12569498B2, “Methods and compositions for the prevention and treatment of ischemia reperfusion injury and infection” (CHILDREN'S NATIONAL MEDICAL CENTER, priority 2019, dated 2026)
Entries after “also recorded” stand apart in the source; their conditions may differ.

What was measured:
[1] = system: oxidative stress within the testis; assay: Myeloperoxidase activity and reduced glutathione levels in testis after testicular torsion; assay type: in vivo, CD1 mice; conditions: varenicline 1 hour after onset of torsion, vs untreated controls; for reduced glutathione (GSH) levels in testis: 48 hours following reperfusion, P≤0.0742
Experimental: Mice underwent testicular torsion as previously described (Lysiak 2001). Briefly, mice were anesthetized with isoflurane over a heating pad. The right testis was delivered through a low scrotal incision and rotated counterclockwise 720 degrees to induce ischemia for 2 hours. […] All animals were injected with long-acting buprenorphine (0.1 mg/kg) for long-term pain control prior to being recovered from anesthesia. […] Mice kept for 30 days after surgery were weighed on a weekly basis.
(§1) Cytisine (Sigma-Aldrich, St. Louis, MO) was administered intraperitoneally at a dose of 0.1 μg/gram either 1 hour before torsion or 1 hour after torsion (1 hour prior to detorsion). Varenicline ([…]) was administered as an intraperitoneal injection one hour after the onset of torsion and then continued every 12 hours for a total of 4 doses.
Tissues were harvested and stored at −80° C. until use. Glutathione reductase activity was measured by use of glutathione reductase assay Kit (Sigma-Aldrich, St. Louis, MO). Testis tissue was homogenized in 5% sulfosalicylic Acid (SSA) solution. Samples were then centrifuged and supernatant was reserved. Supernatants were added to a reaction mixture containing 95 mM potassium phosphate buffer, pH 7.0, 0.95 mM EDTA, 0.038 mg/mL NADPH, 0.031 mg/mL DTNB, 0.115 units/mL glutathione reductase, and 0.24% SSA. Absorbance at 412 nm was recorded. Glutathione results were expressed as nm GSH per mL sample.
Following an ischemic event, the initial inflammatory response is characterized by an increase in oxidative stress and production of reactive oxygen species. In order to determine the effect of cytisine treatment on the level of reactive oxygen species (ROS) following testicular torsion, testicular levels of myeloperoxidase (MPO), a marker of neutrophil activation, and reduced glutathione (GSH) levels (an indirect measure of oxidative stress within the testis) were measured.

[2] = system: NFKB targets (TLR4, NLRP3, Trim63, Fbxo32); assay: RT-PCR of downstream NFKB target genes after testicular torsion; assay type: in vivo, CD1 mice; conditions: testis, 18 hours following testicular torsion
Experimental: Mice underwent testicular torsion as previously described (Lysiak 2001). Briefly, mice were anesthetized with isoflurane over a heating pad. The right testis was delivered through a low scrotal incision and rotated counterclockwise 720 degrees to induce ischemia for 2 hours. […] All animals were injected with long-acting buprenorphine (0.1 mg/kg) for long-term pain control prior to being recovered from anesthesia. Mice were euthanized either 18 hours or 30 days following torsion. Mice kept for 30 days after surgery were weighed on a weekly basis.
as §1
RNA was isolated from testis tissue using RNEasy mini kit (Qiagen, Hilden, Germany) using the manufacturer's protocol. RNA concentration was measured with Nanodrop 8000 (Thermo Scientific, Waltham, MA). cDNA was synthesized using Superscript First-Strand Synthesis system for RT-PCR (Invitrogen, Carlsbad, CA) on a GeneAmp PCR System 9700 (Applied Biosystems, Foster City, CA) Real-Real-time PCR was performed using QuantStudio 7 Flex (Applied Biosystems, Foster City, CA). Software Quantstudio Real-Time PCR Software (Thermo Fisher Scientific, Waltham, MA). TaqMan Gene Expression Assays (Applied Biosystems, Foster City, CA). Standard TaqMan primers were used for Col1, Col3, Vim, SMA.
NFKB signaling results in the upregulation of several downstream targets, which propagate the inflammatory cascade. To determine if varenicline administration reduced activation of the NFKB axis, quantitative PCR of established downstream NFKB targets was performed.

[3] = Warm ischemia of the hindlimb (flow cytometry, quantitative PCR, trichrome staining); assay type: in vivo; conditions: vs untreated controls
[4] = system: IRI markers and pro-fibrotic genes in kidney after CFT073 uropathogenic Escherichia coli pyelonephritis; assay: Quantitative PCR of kidney after acute pyelonephritis (IRI markers, pro-fibrotic genes); assay type: in vivo, C3H/HeOuJ mice
Experimental: Methods: Using an established murine model, pyelonephritis was induced by inoculating the bladder of C3H/HeOuJ mice with a uropathogenic E. coli. Five days following inoculation, half of the animals were treated with 5 days of ceftriaxone and half were treated with 5 days of ceftriaxone plus varenicline in the initial 48 hours. Histology and the expression of ischemia reperfusion injury markers and pro-fibrotic genes were evaluated at 14 and 30 days following the initial infection.
To initiate pyelonephritis, the bladder was catheterized with a 24-gauge angiocatheter and a total volume of 100 μL of a phosphate-buffered saline containing […] colony forming units (CFU) of CFT073 uropathogenic Escherichia coli (UPEC) was then instilled.
[…] Real-time PCR was performed using QuantStudio 7 Flex (Applied Biosystems, Foster City, CA) with Software Quantstudio Real-Time PCR Software (Thermo Fisher Scientific, Waltham, MA) and TaqMan Gene Expression Assays (Applied Biosystems, Foster City, CA). Standard TaqMan primers were used for Complement 1 q B chain (C1qb, Mm01179619_m1), Lipocalin 2 (Lcn2, Mm01324470_m1), Serpina (Mm04213318_m1), Cathepsin S (Ctss, Mm01255859_m1), Vascular cell adhesion molecule 1 (Vcam1, Mm01320970_m1), Interleukin 1 beta (IL-1β, Mm00434228_m1), and Nitric oxide synthase 2 (Nos2, Mm00440502_m1) as short-term IRI markers and Collagen 1 (Col1, Mm00801666_g1), Collagen 3 (Col3, Mm01254476_m1), Vimentin (Vim, Mm01333430_m1), and Smooth muscle actin (Acta, Mm00725412_s1) to evaluate long-term fibrosis.

α4β2nAChR = α4β2nAChR (Homo sapiens, UniProt P17787+P43681); conditions: systemic concentrations found with routine oral dosing in humans (Campling 2013); cited from earlier work
Chain of α4β2nAChR (P43681 29-627 limits assumed): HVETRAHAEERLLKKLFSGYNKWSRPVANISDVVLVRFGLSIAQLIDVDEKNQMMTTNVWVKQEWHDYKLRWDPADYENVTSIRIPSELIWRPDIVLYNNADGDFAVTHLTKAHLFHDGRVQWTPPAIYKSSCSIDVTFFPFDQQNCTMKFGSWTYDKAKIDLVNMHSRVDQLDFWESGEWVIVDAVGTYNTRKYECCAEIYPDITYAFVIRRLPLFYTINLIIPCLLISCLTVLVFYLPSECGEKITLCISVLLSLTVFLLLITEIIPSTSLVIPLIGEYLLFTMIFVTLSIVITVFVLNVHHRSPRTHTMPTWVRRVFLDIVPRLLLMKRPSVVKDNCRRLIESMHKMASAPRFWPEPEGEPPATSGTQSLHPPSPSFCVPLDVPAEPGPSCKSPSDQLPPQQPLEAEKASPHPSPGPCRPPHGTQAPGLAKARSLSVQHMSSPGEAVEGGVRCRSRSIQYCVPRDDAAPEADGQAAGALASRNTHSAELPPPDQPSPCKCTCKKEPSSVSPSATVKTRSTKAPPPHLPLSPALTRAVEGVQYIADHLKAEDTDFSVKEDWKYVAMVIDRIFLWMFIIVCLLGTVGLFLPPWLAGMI
Chain of α4β2nAChR (P17787 26-502): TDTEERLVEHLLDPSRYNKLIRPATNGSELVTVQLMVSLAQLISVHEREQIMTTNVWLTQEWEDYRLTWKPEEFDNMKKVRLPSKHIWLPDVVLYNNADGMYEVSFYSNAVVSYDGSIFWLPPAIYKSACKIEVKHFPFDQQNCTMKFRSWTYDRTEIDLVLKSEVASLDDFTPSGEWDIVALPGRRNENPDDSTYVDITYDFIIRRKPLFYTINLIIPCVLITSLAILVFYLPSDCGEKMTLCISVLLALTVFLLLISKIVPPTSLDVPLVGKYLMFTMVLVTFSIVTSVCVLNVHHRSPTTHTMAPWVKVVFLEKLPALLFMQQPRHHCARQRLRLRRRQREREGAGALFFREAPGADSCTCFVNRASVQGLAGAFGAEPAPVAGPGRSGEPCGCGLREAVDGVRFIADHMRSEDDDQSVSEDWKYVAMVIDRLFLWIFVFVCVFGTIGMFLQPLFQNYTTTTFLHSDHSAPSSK

α7nAChR = α7nAChR (Homo sapiens, UniProt P36544); conditions: peak concentrations in smokers / levels with therapeutic dosing in humans (Campling 2013); cited from earlier work
Chain of α7nAChR (P36544 23-502): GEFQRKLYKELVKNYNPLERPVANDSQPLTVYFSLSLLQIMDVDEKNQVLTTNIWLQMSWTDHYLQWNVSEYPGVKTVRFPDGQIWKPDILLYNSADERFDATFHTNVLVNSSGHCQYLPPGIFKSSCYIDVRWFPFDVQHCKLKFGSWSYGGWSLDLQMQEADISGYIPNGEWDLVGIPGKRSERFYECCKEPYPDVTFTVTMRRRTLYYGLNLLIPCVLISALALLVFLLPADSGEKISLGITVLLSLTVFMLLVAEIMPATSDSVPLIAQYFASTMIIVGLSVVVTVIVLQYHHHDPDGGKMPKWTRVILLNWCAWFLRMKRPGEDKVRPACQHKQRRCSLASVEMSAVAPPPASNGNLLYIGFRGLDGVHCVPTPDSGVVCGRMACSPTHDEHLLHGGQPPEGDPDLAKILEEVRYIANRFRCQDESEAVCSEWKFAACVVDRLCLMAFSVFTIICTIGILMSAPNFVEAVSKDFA

c1cnc2cc3c(cc2n1)C1CNCC3C1 [varenicline, 7,8,9, 10-tetrahydro-6, 10-methano-6H-pyrazino[2,3-h][3]benzazepine]
reduced glutathione (GSH) levels in testis [1]: increased levels of reduced glutathione (GSH)
reduced glutathione (GSH) levels in testis ([1]; listed as Varenicline): preserved reduced glutathione levels
myeloperoxidase (MPO) activity in testis ([1]; P≤0.0013): decreased levels of MPO activity; also recorded: significantly decreased
expression of Fbxo32 ([2]; p<0.0001): significantly decreased the expression
expression of TLR4 ([2]; p<0.01): significantly decreased the expression
expression of NLRP3 ([2]; p<0.05): significantly decreased the expression
expression of Trim63 ([2]; p≤0.034): significantly decreased the expression
infiltration of leukocytes (flow cytometry) ([3]; 24 hours after warm ischemia of the hindlimb, P≤0.01): decreased infiltration of leukocytes
expression of pro-fibrotic genes (quantitative PCR) ([3]; 7 days after reperfusion of the limb): decreased expression of pro-fibrotic genes
collagen deposition in muscle fibers (trichrome staining) ([3]; 14 days following limb ischemia, P≤0.005): significant decrease in collagen deposition
expression of established mediators (markers) of renal ischemia reperfusion injury ([4]; 14 days after inoculation, 5 days after completion of antibiotics, varenicline 1 mg/kg i.p. twice daily first 48 hours plus ceftriaxone vs ceftriaxone alone, difference not statistically significant): decreased expression of IRI markers
expression of pro-fibrotic genes (Col1, Col3, acta, vimentin) in kidney ([4]; 30 days following inoculation, 21 days after completion of antibiotics, varenicline plus ceftriaxone vs ceftriaxone alone): trend towards a decreased expression of pro-fibrotic genes; also recorded: long-term decrease; also recorded: decrease in expression of genes responsible for renal fibrosis
expression of vimentin in kidney ([4]; kidneys at 30 days, p-value of 0.03): Decrease in expression of vimentin
α4β2nAChR agonism (α4β2nAChR): strong α4β2nAChR and α7nAChR agonist
activation of α7nAChR at clinically reached concentrations (α7nAChR): α7nAChR agonist at concentrations found with therapeutic dosing in humans; also recorded: strong α4β2nAChR and α7nAChR agonist
